These are literature values, as cited in patent US20140187635A1, “DICLOFENAC COMPOSITIONS” (THEMIS MEDICARE LIMITED, priority 2012, published 2014).

Molecules are shown by their SMILES. Like-named read-outs stand apart in the source and are kept apart here.

The test system of one series is Dog. The note with it: intravenous.
The next series has as its system rat. The note with it: in vivo, iv.
Another series relates to rabbit. The note with it: intravenous.

In the case of `CCOCCOCCO` [Transcutol, diethylene glycol monoethyl ether], the “eyes: rabbit” value in the series on eyes: rabbit is on record as 500 mg. In addition, the LD50 in the series with mouse (in vivo, ip) was 2300 mg/kg; in the series with mouse (intravenous) it was 4300 µL/kg; in the series with Dog, 3 mL/kg; in the series with rat, 4000 mg/kg; in the series with rabbit, 2500 µL/kg. Moreover, in the series on mouse (subcutaneous), the “LD50 (subcutaneous: mouse)” value was 5500 µL/kg.
